From patent publication US11932593B1, “8-(3-bromobenzylideneamino)naphthalene-1,3-disulfonic acid as an antioxidant compound” (KING FAISAL UNIVERSITY, priority 2023, dated 2024)

Test: DPPH radical scavenging antioxidant test
Format: biochemical
Details: 517 nm; for Inhibition (radical scavenging inhibition): compound 3 μM in ethanol, 0.2 mL DPPH (0.75 mM), 30 min incubation in the dark
Description: The antioxidant properties of the 8-(3-bromobenzylideneamino)naphthalene-1,3-disulfonic acid were studied by adding 0.2 mL DPPH (0.75 mM)) to compound 8-(3-bromobenzylideneamino)naphthalene-1,3-disulfonic acid (III) (3 μM) in ethanol. After 30 min of incubation in the dark, the absorbance was read against a blank at 517 nm. Ascorbic acid (vitamin C) was used as standard antioxidants (positive control). A blank sample was prepared by 0.2 ml of DPPH in 3 ml ethanol. A negative control sample was run using ethanol instead of the sample. The radical scavenging inhibition was calculated using the following equation: […]

Compound	Inhibition (radical scavenging inhibition)	antioxidant potential in DPPH test compared to vitamin C (in words) (DPPH in vitro test, vitamin C as positive control)
O=C1O[C@H]([C@@H](O)CO)C(O)=C1O [vit c, Ascorbic acid, reference compound]	74%	
O=S(=O)(O)c1cc(S(=O)(=O)O)c2c(/N=C/c3cccc(Br)c3)cccc2c1 [Product III, 8-(3-bromobenzylideneamino)naphthalene-1,3-disulfonic acid]	50%	high potential as an antioxidant compared to vitamin C
